The nature of one data set: Water solubility. It counts as physicochemical.
Data set [1] concerns MCA205 globin-SL8-intron (MCA205 GI) tumors. In words: Tumor challenge, MCA205 globin-SL8-intron in immunocompetent C57BL/6 mice. Particulars: for tumor growth: C57BL/6. Format: in vivo, mouse. The procedure: (A) Experimental settings. (B) MCA205 globin-SL8-intron cells were inoculated subcutaneously on the mice flank. Five days and fifteen days later, 6 mg/kg, 12 mg/kg or 18 mg/kg isoginkgetin was injected intraperitoneally. Tumor size was assessed every 3 to 4 days until day 27. Each line represents the tumor size in area (mm^2) of 6 mice in each group. Data are given as mean ±SEM. *p<0.05 (ANOVA with Tukey's multiple comparison test comparing all groups).
(§1) (A) Experimental settings. Growth of (B) sarcoma MCA205 or (C) melanoma B16F10 cells that both stably express the globin-SL8-intron construct or (D) MCA205 Wild Type (WT) or (E) B16F10 WT cells that were subcutaneously inoculated on the flank of immunocompetent C57BL/6 mice injected intraperitoneally with 12 mg/kg or 18 mg/kg of isoginkgetin at days 5, 10 and 15 after inoculation. Tumor size was assessed every 3 to 4 days until reaching the established ethical endpoints. Each line represents the tumor size in area (mm^2) of 6 mice in each group. Size in area (mm^2) of (F) MCA205 globin-SL8-intron, (G) B16F10 globin-SL8-intron, (H) MCA205 WT or (I) B16F10 WT tumors subcutaneously inoculated on the flank of immunodeficient Nu/Nu Nude mice injected intraperitoneally with 18 mg/kg of isoginkgetin at days 5, 10 and 15 after inoculation. Data are presented at the day before the endpoints are reached.
Data are given as mean ±SEM. *P<0.05, **P<0.01, ***P<0.001 (unpaired student t test). […] Tumor size was assessed every 3 to 4 days until reaching the established ethical endpoints. Each line represents the tumor size in area (mm^2) of at least 6 mice in each group. Data are given as mean ±SEM. *p<0.05, **p<0.01 (ANOVA with Tukey's multiple comparison test comparing all groups). […] A Log-rank (Mantel-Cox) test was performed.
C57B1/6J female mice are obtained from Harlan. NU/NU nude mouse mice are obtained from Charles River. At 7 weeks old, mice are injected subcutaneously on the right flank with 5×10^4 MCA205-Globin-SL8-intron cells or with 4×10^4 B16F10-Globin-SL8-intron cells along with matrigel (VWR). […] Fifteen days after challenge mouse are again treated intreaperitonealy with the same drug. Area of the tumor is recorded every 3 to 4 days until day 27. All animal experiments were carried out in compliance with French and European laws and regulations. Results are expressed as mean ±SEM. *p<0.05, **P<0.01, ***P<0.001 (ANOVA with Tukey's multiple comparison test comparing all groups).

Data set [2] deals with MCA205 globin-SL8-intron tumors. Description: Tumor challenge, MCA205 globin-SL8-intron in immunodeficient Nu/Nu nude mice. It counts as in vivo, mouse. Particulars: 18 mg/kg intraperitoneally. Here is the method:
(D) MCA205 globin-SL8-intron cells were inoculated subcutaneously on the […] mice flank. […] Tumor size was assessed every 3 to 4 days until day 27. Each line represents the tumor size in area (mm^2) of 6 mice in each group. Data are given as mean ±SEM. *p<0.05, **p<0.01 (ANOVA with Tukey's multiple comparison test comparing all groups). (E) MCA205 globin-SL8-intron cells were inoculated subcutaneously on the Nude nu/nu mice flank. […] Tumor size was assessed every 3 to 4 days until day 27. Each line represents the tumor size in area (mm^2) of 6 mice in each group. Data are given as mean ±SEM. (A) Experimental settings. Growth of (B) sarcoma MCA205 or (C) melanoma B16F10 cells that both stably express the globin-SL8-intron construct or (D) MCA205 Wild Type (WT) or (E) B16F10 WT cells that were subcutaneously inoculated on the flank of immunocompetent C57BL/6 mice injected intraperitoneally with 12 mg/kg or 18 mg/kg of isoginkgetin at days 5, 10 and 15 after inoculation. Tumor size was assessed every 3 to 4 days until reaching the established ethical endpoints. Each line represents the tumor size in area (mm^2) of 6 mice in each group. […] Area of the tumor is recorded every 3 to 4 days until day 27. […] Results are expressed as mean ±SEM. *[…] with Tukey's multiple comparison test comparing all groups).

Data set [3] has as its system B16F10 globin-SL8-intron tumors. Description: Tumor challenge, B16F10 globin-SL8-intron in immunodeficient Nu/Nu nude mice. Particulars: 18 mg/kg intraperitoneally, days 5, 10 and 15. It counts as in vivo, mouse. The procedure: as §1
Each line represents the tumor size in area (mm^2) of at least 6 mice in each group. The C right panel represents the tumor size at day 27. […]
Inventors then assessed the requirement of the immune response for isoginkgetin to reduce tumor growth Immunodeficient Nu/Nu nude mice were inoculated subcutaneously with either MCA205 or B16F10 cells that stably express the Globin-intron-SL8 or WT, and were treated with the same settings as previously described (FIG. 9A). […]

Setting [4] is: 18 mg/kg intraperitoneally, days 5, 10 and 15.
[5] abbreviates: 18 mg/kg intraperitoneally, days 5 and 15.

Molecules are shown by their SMILES. Read-outs that look alike come from different tables or passages of the source.

With `COc1ccc(-c2cc(=O)c3c(OC)cc(OP(=O)([O-])[O-])c(-c4cc(-c5cc(=O)c6c(OC)cc(OP(=O)([O-])[O-])cc6o5)ccc4OC)c3o2)cc1.[Na+].[Na+].[Na+].[Na+]` [IM2P2], the water solubility entry is given as “able to be dissolved in water” in “Water solubility” and “considerably higher than that of the parent compound isoginkgetin” in the data set “Water solubility” (listed as M2P2). The “survival (Kaplan Meier)” value in data set [1] (18 mg/kg intraperitoneally) was “does not impact survival”. The tumor growth result in data set [1] (setting [4]) is listed as “no impact”; in data set [1] (setting [5]), “did not demonstrate any tumor growth decrease”; in data set [2] (days 5 and 15), “any of the compounds used have an effect on the tumor growth”.

As for `COc1ccc(-c2cc(=O)c3c(O)cc(O)c(-c4cc(-c5cc(=O)c6c(O)cc(O)cc6o5)ccc4OC)c3o2)cc1` [Isoginkgetin, isoginkgetin], the tumor growth result is reported as “No effect” in data set [3]; “No effect” in data set [2] (days 5, 10 and 15). Moreover, the water solubility result in the data set “Water solubility” was “insoluble in water”. The “reduction of tumor growth at day 27 after challenge” value was determined as 50% in data set [1] (6 mg/kg intraperitoneally, days 5 and 15); 50% in data set [1] (setting [5]). Besides, the “reduction of tumor size at day 27 after challenge” value in data set [1] (12 mg/kg intraperitoneally, days 5, 10 and 15) is recorded as “over 50%”; in data set [1] (setting [4]), “over 50%”. Further, the “survivors 100 days after tumor inoculation” value in data set [1] (18 mg/kg intraperitoneally, Kaplan Meier) is “around 30%”.

The values above are taken from patent US11110105B2, “Compounds, composition and uses thereof for treating cancer” (INSTITUT GUSTAVE ROUSSY, priority 2017, dated 2021).
